# Earlier results, collected in patent US20090258907A1, “COMPOUNDS USEFUL AS INHIBITORS OF ROCK KINASES” (ABBOTT LABORATORIES, priority 2008, published 2009).
# Columns and labels:
# [1] = OLETF rats, high dose
# [2] = test system: vascular smooth muscle cell (VSMC); details: vein grafts, weeks following the procedure
# [3] = mouse, in vivo
# [4] = CNS ischemic conditions
# [5] = Zucker obese rats, 4 weeks
# [6] = experimental myocardial infarction (MI); rat chronic hypertension induced congestive heart failure
compound,measurement,setting,value
O=S(=O)(c1cccc2cnccc12)N1CCCNCC1 [fasudil],"development of diabetes, obesity, dyslipidemia; serum adiponectin",[1],"completely suppressed the development of diabetes, obesity, and dyslipidemia and increased serum adiponectin levels"
same,VSMC apoptosis,[2],enhanced
same,intimal thickening and VSMC proliferation,[2],significantly suppressed
same,efficacy in animal models of epileptogenesis,[3],efficacy
same,cerebral blood flow and neuroprotection,[4],increased cerebral blood flow and was neuroprotective
same,"blood pressure, glucose and lipid metabolism, insulin signalling, endothelial dysfunction",[5],"reduced blood pressure, corrected glucose and lipid metabolism, improved insulin signalling and endothelial dysfunction"
same,"effect on ischemia-reperfusion injury, myocardial infarct size and myocardial fibrosis",[6],"decrease ischemia-reperfusion injury, myocardial infarct size, and myocardial fibrosis"
